{
  "source": "paper PMC6494879",
  "about": "“Drug resistance emergence in macaques administered cabotegravir long-acting for pre-exposure prophylaxis during acute SHIV infection” (Nature Communications, 2019)",
  "key": {"[1]": {"test_system": "SIV integrase WT (SIV IN RTV pseudovirus)", "assay": "organism not typed", "type": "cell-based"}, "[2]": {"test_system": "SIV integrase E92Q (SIV IN RTV pseudovirus)", "type": "cell-based", "details": "E92Q SIV integrase mutant"}, "[3]": {"test_system": "SIV integrase G140R (SIV IN RTV pseudovirus)", "assay": "organism not typed", "type": "cell-based", "details": "HEK293"}, "[4]": {"test_system": "SIV integrase Q124R (SIV IN RTV pseudovirus)", "assay": "organism not typed", "type": "cell-based"}, "[5]": {"test_system": "SIV integrase A122T (SIV IN RTV pseudovirus)", "assay": "organism not typed", "type": "cell-based"}, "[6]": {"test_system": "SIV integrase G118R/A122T (SIV IN RTV pseudovirus)", "type": "cell-based", "details": "G118R/A122T SIV integrase mutant"}, "[7]": {"test_system": "SIV integrase I72T (SIV IN RTV pseudovirus)", "assay": "organism not typed", "type": "cell-based"}, "[8]": {"test_system": "SIV integrase I110V (SIV IN RTV pseudovirus)", "assay": "organism not typed", "type": "cell-based"}, "[9]": {"test_system": "SIV integrase I250V (SIV IN RTV pseudovirus)", "assay": "organism not typed", "type": "cell-based"}, "[10]": {"test_system": "SIV integrase E92G (SIV IN RTV pseudovirus)"}, "[11]": {"details": "time course, day given in the Days column, CAB LA 50 mg/kg i.m. days 11, 39, 67, LLOQ 10 ng ml^-1", "procedure": "(§1) CAB LA (200 mg/mL injectable stock aqueous suspension) was given at a dose of 50 mg kg^−1 under anesthesia by intramuscular injection into the quadriceps. Volumes greater than 1.0 mL were divided into two injection sites."}, "[12]": {"test_system": "HIV-1", "details": "read-out: 50% inhibitory concentration (IC50); cited from earlier work"}, "[13]": {"assay": "in vivo", "details": "Indian, rhesus monkey", "procedure": "as §1"}, "[14]": {"details": "ECLAIR trial; cited from earlier work"}},
  "note": "Where two headings read alike, the source gives them in different places.",
  "data": [
    {"compound": "C[C@H]1CO[C@@H]2Cn3cc(C(=O)NCc4ccc(F)cc4F)c(=O)c(O)c3C(=O)N12", "note": "[CAB, cabotegravir]", "values": [
      {"measurement": "EC50", "setting": "[1]; HEK293", "result": 1.19, "unit": "nM"},
      {"measurement": "fold-change relative to wild type integrase", "setting": "[1]; WT SIV integrase", "result": 1, "unit": "fold"},
      {"measurement": "fold-change relative to wild type integrase", "setting": "[2]", "result": 2.5, "unit": "fold"},
      {"measurement": "EC50", "setting": "[3]", "result": "> 1000", "unit": "nM"},
      {"measurement": "EC50", "setting": "[4]; HEK293", "result": 1.22, "unit": "nM"},
      {"measurement": "fold-change relative to wild type integrase", "setting": "[4]; {}", "result": 1.0, "unit": "fold"},
      {"measurement": "EC50", "setting": "[5]; HEK293", "result": 1.51, "unit": "nM"},
      {"measurement": "fold-change relative to wild type integrase", "setting": "[5]; {}", "result": 1.3, "unit": "fold"},
      {"measurement": "fold-change relative to wild type integrase", "setting": "[6]", "result": "> 840", "unit": "fold"},
      {"measurement": "EC50", "setting": "[7]; HEK293", "result": 0.96, "unit": "nM"},
      {"measurement": "fold-change relative to wild type integrase", "setting": "[7]; {}", "result": 0.8, "unit": "fold"},
      {"measurement": "EC50", "setting": "[8]; HEK293", "result": 1.27, "unit": "nM"},
      {"measurement": "fold-change relative to wild type integrase", "setting": "[8]; {}", "result": 1.1, "unit": "fold"},
      {"measurement": "EC50", "setting": "[9]; HEK293", "result": 1.04, "unit": "nM"},
      {"measurement": "fold-change relative to wild type integrase", "setting": "[9]; {}", "result": 0.9, "unit": "fold"},
      {"measurement": "EC50", "setting": "[10]", "result": 4.2, "unit": "nM"},
      {"measurement": "fold-change relative to wild type integrase", "setting": "[10]", "result": 3.5, "unit": "fold"},
      {"measurement": "Vaginal fluid CAB concentration in treated macaques", "setting": "[11]; macaque 10D181", "result": 0.009, "unit": "µg/mL"},
      {"measurement": "Vaginal fluid CAB concentration in treated macaques", "setting": "[11]; macaque 33996", "result": 0.009, "unit": "µg/mL"},
      {"measurement": "IC50", "setting": "[12]", "result": "~0.22", "unit": "nM"},
      {"measurement": "half-life", "setting": "[13]", "result": 10.7, "unit": "days"},
      {"measurement": "subjects with CAB still detectable 52 weeks after the last injection", "setting": "[14]", "result": 14, "unit": "%"}
    ]}
  ]
}
